Source: article PMC4122966, “Novel VCP modulators mitigate major pathologies of rd10, a mouse model of retinitis pigmentosa” (Scientific Reports, 2014)

Key:
retinal neuronal cells = experiment: retinal organ culture with NMDA insult; format: cell-based, mouse; conditions: 200 µM NMDA, 50 µM KUS121, 4 days
Procedure: Supplementary Figure Legends
Supplementary Figure 1 Inhibitory effects of KUS121, KUS187, and DBeQ on the ATPase activity of recombinant VCP purified from E. coli.
Supplementary Figure 2 (a) HeLa cells were cultured in medium with low glucose (0.25 g/l) for 20 hours, with or without KUSs, and ATP levels were measured with luciferase assays. *** P < 0.005 vs. DMSO control (Dunnett’s test, n=3). HG: medium with 4.5 g/l glucose. Error bars indicate SD. (b) HeLa cells were cultured in medium with low glucose (0.2 g/l) for 20 hours, with DMSO or KUSs, and ATP and ADP levels were measured by HPLC. The respective ratios of ATP/ADP are shown. * P < 0.05, ** P < 0.01 vs. DMSO control (Dunnett’s test, n=3). Error bars indicate SD. (c) HeLa cells were cultured in medium without glucose for 6 hours, with (50 µM each KUS, as indicated) or without KUSs, and acetyl-CoA levels were measured by HPLC.
Supplementary Figure 3 Immunohistochemical analyses of retinal neuronal cells.
Retinal sections of 5-month-old C57BL/6 mice were stained with (b) or without (a) an anti-VCP antibody12, developed with diaminobenzidine and counter-stained with hematoxylin (a, b). Note that all retinal neuronal cells highly expressed VCP. GCL: ganglion cell layer, IPL: inner plexiform layer, INL: inner nuclear layer, OPL: outer plexiform layer, ONL: outer nuclear layer, IS: inner segment, OS: outer segment.
Retinas from adult C57BL/6 mice were cultured on porous membrane with 200 µM of NMDA with or without KUS121 (50 µM) for 4 days. (a) HE-stained retinal sections.
In the retina cultured with KUS121, the inner nuclear layer (INL), inner plexiform layer (IPL), ganglion cell layer (GCL), and retinal nerve fiber layer (RNFL) were thicker than that of the retina without KUS121. (b) TUNEL staining of the retinal […]
Supplementary Figure 5 (a) Cross sectional (vertical) images obtained by spectral-domain optical coherence tomography (SD-OCT) in 21-day-old C57BL/6 wild-type (WT) and rd10 mice with or without KUSs. […] (c) The mean amplitude of the a-wave (measured at 25 msec), which is derived from photoreceptors, in KUS-treated […]

HeLa cells = experiment: protection from cell death in low glucose medium (WST); format: cell-based; conditions: low glucose 0.2 g/l, 5, 10, 20, and 50 μM, 41 hours
Procedure: Figure 2 Prevention of cell death and ER stress by KUSs. (a) Photographs of HeLa cells, cultured with DMSO (DMSO) or KUSs (KUS94, KUS121, and KUS187, 20 μM each) for 41 hours in low glucose (0.2 g/l) medium. Scale bar, 100 μm. (b–e) WST (water-soluble tetrazolium salts) values reflecting relative live cell numbers are shown, as optical density (OD) at 450 nm. Error bars indicate SD. (b) WST values of HeLa cells, cultured in low glucose (0.2 g/l) with DMSO (control) or KUSs (50 μM for KUS121; 20 μM for KUS69, KUS94, and KUS187, n = 3) for 41 hours. (c) Cell viability, indicated by WST values of HeLa cells, cultured with tunicamycin (Tm) (0.2 μg/ml) for 41 hours with KUSs (20 μM each, n = 3). […]
HeLa, HEK293, and PC12 cells were cultured in Dulbecco's modified Eagle's medium (DMEM) with 10% fetal bovine serum. […] Viability of cultured cells was measured by formazan production with an ARVO multilabel counter (Wallac), using WST (water soluble tetrazolium salts)-8 reagent (Cell count reagent SF, Nacalai Tesque, Kyoto, Japan). ATP in cultured cells was measured by luciferase activities with an ARVO multilabel counter, using ATP assay reagent for cells (Toyo B-net, Tokyo, Japan). Acetyl-CoA was measured using a PicoProbe Acetyl CoA assay kit (BioVision, CA, USA) with a Spectra Max multilabel counter (Molecular Devices, CA, USA).

`Cc1cc(F)ccc1-c1ccc(/N=N/c2cc(S(=O)(=O)O)c3ccccc3c2N)cn1` [KUS121] was tested, and the TUNEL-positive apoptotic cells (retinal neuronal cells) was “More TUNEL-positive apoptotic cells (green) were observed in the retina”, the “thickness of INL, IPL, GCL and RNFL (HE-stained sections)” value (retinal neuronal cells; vs retina without KUS121) was “thicker” and the “protection of retinal neuronal cells from NMDA insult” value (retinal neuronal cells; retinas from adult C57BL/6 mice) was “protects retinal neuronal cells from NMDA insult”. The “dose dependence of protective effect” value (HeLa cells) was “dose-dependent”.
